Molecules are shown by their SMILES. Where a name gives a salt, the structure may show the parent alone.

This assay relates to QT interval. The assay is described as follows: Antiarrhythmic Class III action in guinea pigs after intravenous administration (QT interval prolongation in the ECG). In kind it is in vivo, Pirbright white guinea pigs. To be noted: Cavia porcellus, anesthetized with urethane, ED 20% from linear relationship between log dose and relative QT prolongation (Δ%). As to the method: The experimental animals used are male and female Pirbright white guinea pigs weighing from 300 to 500 g. Anesthesia is effected with 1.5 g/kg of urethane administered intraperitoneally. The substances are administered intravenously. To measure the ECG conduction times and the heart rate, the II. limb lead is recorded. The relevant parameters are the QT and PQ intervals and the heart rate. From 4 to 6 animals are used per dose. The criterion for Class III action is an increase in the QT interval compared with the values prior to administration of the substance. An increase in the PQ interval and a sharp decrease in the heart rate serve as exclusion criteria. The ED 20% is calculated from the linear relationship between log dose (mg/kg) of the substance and the relative prolongation of the QT interval (Δ%).
`Nc1ccc(C(=O)N2CC3CC(CN(Cc4ccccc4)C3)C2)cc1` [Ambasilide, reference compound] registered an ED (20%) of 6.3 mg/kg.

For the compound `CC(C)NC[C@@H](O)c1ccc(NS(C)(=O)=O)cc1` [D-sotalol, reference compound], the ED (20%) was 3.6 mg/kg.

For `O=C(c1ccc(Cl)cc1)N1CC2CC(CN(Cc3ccccc3)C2)C1` [Example 2, 7-benzyl-3-(4-chlorobenzoyl)-3,7-diazabicyclo[3.3.1]nonyl hydrochloride], the ED (20%) came out at 4.6 mg/kg.

Compound `Cc1ccc(NC(=O)N2CC3CC(CN(Cc4ccccc4)C3)C2)cc1` [Example 21, 7-Benzyl-3-(4-methylphenylcarbamyl)-3,7-diazabicyclo[3.3.1]nonane] showed an ED (20%) of 2.6 mg/kg.

`O=C(Nc1ccc(Cl)cc1)N1CC2CC(CN(Cc3ccccc3)C2)C1` [Example 23, 7-Benzyl-3-(4-chlorophenylcarbamyl)-3,7-diazabicyclo[3.3.1]nonane] registered an ED (20%) of 2.4 mg/kg.

In turn, `O=C(Nc1ccccc1)N1CC2CC(CN(Cc3ccc(Cl)cc3)C2)C1` [Example 26, 3-(Phenylcarbamyl)-7-(4-chlorobenzyl)-3,7-diazabicyclo[3.3.1]nonane] had an ED (20%) of 3.6 mg/kg.

Values taken from patent publication US4959373A, “Bispidine derivatives as class III antiarrhythmic agents” (BASF Aktiengesellschaft, priority 1987, dated 1990).
